From US20140106390A1, “BIOMARKERS FOR THE TREATMENT OF MULTIPLE MYELOMA” (CELGENE CORPORATION, priority 2011, published 2014)

Legend:
[1] = compared with the racemic mixture; cited from earlier work
serum M-protein = assay: Tumor growth inhibition (TGI) model for pomalidomide single agent fitted to serum M-protein data, Phase I/II pomalidomide study; format: in vivo, patients; conditions: population estimate
Protocol: The Phase I segment investigates whether pomalidomide single agent dose could be escalated up to 5 mg daily using the cyclic schedule. The Phase II segment has progression free survival (PFS) as the primary endpoint and an interim analysis is planned at 50% of the events.
A semi-mechanistic exposure-driven tumor growth inhibition (TGI) model was used to model serum M-protein data (taken as a marker of tumor size) as function of time and drug dose levels. The TGI model is described by the following differential equation system: […]
where y(t) is the at time t with y0 value at baseline (g/L),
KL, is the rate of M-protein level increase (tumor growth rate) (week^−1),
KD, is the rate of drug-induced M-protein decrease (drug potency, mg^−1.week^−1)
KD decreases with time (from KD,0 at time 0, full effect) with the rate constant λ, (week^−1)
D (t) is the amount of drug at the site of action (mg) (“KPD model”) (see Jacqim et al., J. Pharmacokinet. Pharmacodyn. (2007), 31: 57-85),
Kp is the elimination rate constant from the virtual biophase compartment (week^−1).
Model parameters were estimated by maximum likelihood in non-linear mixed effect model using NONMEM VI level 1.0 FOCE method with interaction (Beal et al., NONMEM user's guide. (1992) San Francisco: University of California at San Francisco NONMEM Project Group). […]

[2] = Phase Ib ascending dose study of pomalidomide (MTD); format: in vivo; conditions: 45 relapsed and refractory multiple myeloma patients
Protocol: M-protein measurements entered from data with pomalidomide in relapsed and refractory multiple myeloma patients consists of one completed and two ongoing studies. In a Phase Ib ascending dose study in 45 patients, the MTD of pomalidomide was 2 mg administered daily or 5 mg administered on an every other day schedule. These subjects tolerated alternate day dosing better than daily dosing based on dose-limiting toxicity (DLT), however, the AE profiles were similar for both dosing regimens.

Row | SMILES | potency [1] | λ, rate constant of decrease of KD with time (resistance appearance), estimate (serum M-protein) [wk^−1] | KL, rate of M-protein level increase (tumor growth rate), estimate (serum M-protein; 37 patients) [wk^−1] | MTD ([2]; administered daily) [mg] | MTD ([2]; administered on an every other day schedule) [mg]
1 | Nc1cccc2c1C(=O)N([C@H]1CCC(=O)NC1=O)C2=O [(S)-isomer of 4-(amino)-2-(2,6-dioxo(3-piperidyl))-isoindoline-1,3-dione, (S)-4-(amino)-2-(2,6-dioxo(3-piperidyl))-isoindoline-1,3-dione] | higher potency than the racemic mixture |  |  |  | 
2 | Nc1cccc2c1C(=O)N(C1CCC(=O)NC1=O)C2=O (centres unmarked) [pomalidomide, 4-amino-2-(2,6-dioxopiperidin-3-yl)isoindole-1,3-dione] |  | 0.128 | 0.036 | 2 | 5
